From patent US10246453B2, “Benzenesulfonamide compounds and their use as therapeutic agents” (Xenon Pharmaceuticals Inc., priority 2016, dated 2019)
Counter-ions that a name gives are not always drawn.

Experiments:
NaV1.1 = NaV1.1 (Homo sapiens (Human), UniProt P35498); assay: Sodium Influx Assay (Flux), NaV1.1; type: cell-based; settings: Trex HEK293 cells, ANG2 dye; arithmetic mean
NaV1.6 = NaV1.6 (Homo sapiens (Human), UniProt Q9UQD0); assay: Sodium Influx Assay (Flux), NaV1.6; settings: read-out: Flux NaV1.6 IC50; Trex HEK293 cells, ANG2 dye; arithmetic mean
NaV1.5 = NaV1.5 (Homo sapiens (Human), UniProt Q14524); assay: Sodium Influx Assay (Flux), NaV1.5; settings: read-out: Flux NaV1.5 IC50; Trex HEK293 cells, ANG2 dye; arithmetic mean
Sequence of NaV1.5 (Q14524 other isoform, or with tags, fused parts or gaps): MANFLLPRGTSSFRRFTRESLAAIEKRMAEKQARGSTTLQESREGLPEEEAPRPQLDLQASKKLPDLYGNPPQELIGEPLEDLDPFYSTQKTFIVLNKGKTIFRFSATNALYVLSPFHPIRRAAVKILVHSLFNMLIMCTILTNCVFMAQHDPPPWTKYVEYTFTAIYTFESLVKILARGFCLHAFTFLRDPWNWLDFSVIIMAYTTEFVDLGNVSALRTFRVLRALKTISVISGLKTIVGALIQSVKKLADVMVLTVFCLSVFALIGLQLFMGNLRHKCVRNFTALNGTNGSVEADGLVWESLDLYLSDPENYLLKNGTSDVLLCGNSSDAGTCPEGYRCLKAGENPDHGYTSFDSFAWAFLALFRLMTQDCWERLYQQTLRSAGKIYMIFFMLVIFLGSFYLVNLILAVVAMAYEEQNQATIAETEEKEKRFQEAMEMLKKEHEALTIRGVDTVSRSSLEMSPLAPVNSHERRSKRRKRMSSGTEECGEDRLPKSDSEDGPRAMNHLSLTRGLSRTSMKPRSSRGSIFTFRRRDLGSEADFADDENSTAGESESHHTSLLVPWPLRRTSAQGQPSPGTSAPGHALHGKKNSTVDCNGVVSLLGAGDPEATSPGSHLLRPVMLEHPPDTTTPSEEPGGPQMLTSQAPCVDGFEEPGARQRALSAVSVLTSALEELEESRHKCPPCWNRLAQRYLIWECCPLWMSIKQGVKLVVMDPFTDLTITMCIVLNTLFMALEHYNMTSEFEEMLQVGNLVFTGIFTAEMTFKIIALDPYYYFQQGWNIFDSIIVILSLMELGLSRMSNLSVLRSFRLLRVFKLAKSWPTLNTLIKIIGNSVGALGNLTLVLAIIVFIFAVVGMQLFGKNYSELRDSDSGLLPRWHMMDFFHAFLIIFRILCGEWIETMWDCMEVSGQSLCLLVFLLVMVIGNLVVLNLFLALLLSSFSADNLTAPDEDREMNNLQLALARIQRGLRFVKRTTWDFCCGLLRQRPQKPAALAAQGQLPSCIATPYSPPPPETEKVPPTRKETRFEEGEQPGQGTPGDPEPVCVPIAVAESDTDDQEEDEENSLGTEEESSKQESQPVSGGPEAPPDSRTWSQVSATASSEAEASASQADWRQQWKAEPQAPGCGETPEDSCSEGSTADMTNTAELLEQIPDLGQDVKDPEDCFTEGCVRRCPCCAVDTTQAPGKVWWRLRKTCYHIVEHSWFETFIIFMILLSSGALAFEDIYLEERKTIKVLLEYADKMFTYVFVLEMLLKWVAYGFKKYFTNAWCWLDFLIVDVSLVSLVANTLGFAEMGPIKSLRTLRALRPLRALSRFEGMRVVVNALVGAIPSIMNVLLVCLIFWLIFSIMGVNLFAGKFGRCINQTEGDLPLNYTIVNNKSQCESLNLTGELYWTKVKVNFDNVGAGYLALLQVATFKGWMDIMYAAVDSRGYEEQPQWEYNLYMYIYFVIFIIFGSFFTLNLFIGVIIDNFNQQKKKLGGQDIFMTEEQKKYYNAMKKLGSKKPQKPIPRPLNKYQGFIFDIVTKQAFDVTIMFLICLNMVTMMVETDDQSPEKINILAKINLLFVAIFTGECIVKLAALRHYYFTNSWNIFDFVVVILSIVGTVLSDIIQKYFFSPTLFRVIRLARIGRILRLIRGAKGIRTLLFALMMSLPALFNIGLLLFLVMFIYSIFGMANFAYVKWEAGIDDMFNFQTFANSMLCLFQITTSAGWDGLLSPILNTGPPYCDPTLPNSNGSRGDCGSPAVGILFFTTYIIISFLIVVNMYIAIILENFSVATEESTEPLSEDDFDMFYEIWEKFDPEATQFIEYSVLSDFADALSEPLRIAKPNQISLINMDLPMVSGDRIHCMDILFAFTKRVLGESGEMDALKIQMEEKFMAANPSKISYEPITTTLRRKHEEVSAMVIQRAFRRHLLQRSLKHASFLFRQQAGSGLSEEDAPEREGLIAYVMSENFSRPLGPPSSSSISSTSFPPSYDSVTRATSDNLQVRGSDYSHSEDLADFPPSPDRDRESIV

O=S(=O)(Nc1nccs1)c1ccc(OC2CN(Cc3ccccc3)C2)c(Cl)c1 [Example 76, 4-((1-benzylazetidin-3-yl)oxy)-3-chloro-N-(thiazol-2-yl)benzenesulfonamide]
IC50 (NaV1.1): 11.4 µM | IC50 (NaV1.6): 4.7 µM | IC50 (NaV1.5): 16.8 µM

O=S(=O)(Nc1cccc(F)n1)c1cc(Cl)c(OC2CCN(Cc3ccccc3)CC2)cc1F [Example 78, 4-((1-benzylpiperidin-4-yl)oxy)-5-chloro-2-fluoro-N-(6-fluoropyridin-2-yl)benzenesulfonamide 2,2,2-trifluoroacetate]
IC50 (NaV1.1): 8.17 µM | IC50 (NaV1.6): 6.6 µM | IC50 (NaV1.5): 2.86 µM

O=S(=O)(Nc1nccs1)c1ccc(OC2CCN(Cc3cccc(F)c3)CC2)c(Cl)c1 [Example 81, 3-chloro-4-(1-(3-fluorobenzyl)piperidin-4-yloxy)-N-(thiazol-2-yl)benzenesulfonamide]
IC50 (NaV1.1): 7.48 µM | IC50 (NaV1.6): 0.572 µM | IC50 (NaV1.5): 7.22 µM

COc1cccc(CN2CCC(Oc3ccc(S(=O)(=O)Nc4nccs4)cc3Cl)CC2)c1 [Example 84, 3-chloro-4-(1-(3-methoxybenzyl)piperidin-4-yloxy)-N-(thiazol-2-yl)benzenesulfonamide]
IC50 (NaV1.1): 6 µM | IC50 (NaV1.6): 0.525 µM | IC50 (NaV1.5): 3.54 µM

O=S(=O)(Nc1nccs1)c1ccc(OC2CCN(Cc3cccc(Cl)c3)CC2)c(Cl)c1 [Example 85, 3-chloro-4-(1-(3-chlorobenzyl)piperidin-4-yloxy)-N-(thiazol-2-yl)benzenesulfonamide]
IC50 (NaV1.1): 8.7 µM | IC50 (NaV1.6): 0.353 µM | IC50 (NaV1.5): 5.71 µM

Cc1cccc(CN2CC[C@H](Nc3cc(F)c(S(=O)(=O)Nc4nccs4)cc3Cl)C2)c1 [Example 86, (S)-5-chloro-2-fluoro-4-(1-(3-methylbenzyl)pyrrolidin-3-ylamino)-N-(thiazol-2-yl)benzenesulfonamide]
IC50 (NaV1.1): 5.37 µM | IC50 (NaV1.6): 0.588 µM | IC50 (NaV1.5): 12.5 µM

O=S(=O)(Nc1nccs1)c1ccc(OC2CCN(Cc3ccccc3F)CC2)c(Cl)c1 [Example 90, 3-chloro-4-(1-(2-fluorobenzyl)piperidin-4-yloxy)-N-(thiazol-2-yl)benzenesulfonamide]
IC50 (NaV1.1): 12.4 µM | IC50 (NaV1.6): 0.464 µM | IC50 (NaV1.5): 8.16 µM

Cc1ccccc1CN1CCC(Oc2ccc(S(=O)(=O)Nc3nccs3)cc2Cl)CC1 [Example 91, 3-chloro-4-(1-(2-methylbenzyl)piperidin-4-yloxy)-N-(thiazol-2-yl)benzenesulfonamide]
IC50 (NaV1.1): 7.2 µM | IC50 (NaV1.6): 1.2 µM | IC50 (NaV1.5): 6.94 µM

Cc1ccc(CN2CCC(Oc3ccc(S(=O)(=O)Nc4nccs4)cc3Cl)CC2)cc1C [Example 93, 3-chloro-4-(1-(3,4-dimethylbenzyl)piperidin-4-yloxy)-N-(thiazol-2-yl)benzenesulfonamide]
IC50 (NaV1.1): 12.6 µM | IC50 (NaV1.6): 3.62 µM | IC50 (NaV1.5): 12.5 µM

Cc1cc(C)cc(CN2CCC(Oc3ccc(S(=O)(=O)Nc4nccs4)cc3Cl)CC2)c1 [Example 94, 3-chloro-4-(1-(3,5-dimethylbenzyl)piperidin-4-yloxy)-N-(thiazol-2-yl)benzenesulfonamide]
IC50 (NaV1.1): 11.4 µM | IC50 (NaV1.6): 3.44 µM | IC50 (NaV1.5): 7.62 µM

O=S(=O)(Nc1ncns1)c1ccc(O[C@@H]2CCN(Cc3ccccc3)C2)c(Cl)c1 [Example 96, (R)-4-(1-benzylpyrrolidin-3-yloxy)-3-chloro-N-(1,2,4-thiadiazol-5-yl)benzenesulfonamide 2,2,2-trifluoroacetate]
IC50 (NaV1.1): 25.7 µM | IC50 (NaV1.6): 11.9 µM | IC50 (NaV1.5): > 30 µM

Cc1cc(C)cc(CN2CC[C@@H](Oc3ccc(S(=O)(=O)Nc4ncns4)cc3Cl)C2)c1 [Example 98, (R)-3-chloro-4-(1-(3,5-dimethylbenzyl)pyrrolidin-3-yloxy)-N-(1,2,4-thiadiazol-5-yl)benzenesulfonamide 2,2,2-trifluoroacetate]
IC50 (NaV1.1): 21.9 µM | IC50 (NaV1.6): 7.53 µM | IC50 (NaV1.5): > 30 µM

Cc1cc(S(=O)(=O)Nc2cscn2)c(F)cc1N(C)[C@H]1CCN(Cc2csc(C(C)C)n2)C1 [Example 107, (S)-2-fluoro-4-((1-((2-isopropylthiazol-4-yl)methyl)pyrrolidin-3-yl)(methyl)amino)-5-methyl-N-(thiazol-4-yl)benzenesulfonamide 2,2,2-trifluoroacetate]
IC50 (NaV1.1): 4.1 µM | IC50 (NaV1.6): 0.049 µM | IC50 (NaV1.5): 9.6 µM

Cc1cc(S(=O)(=O)Nc2cscn2)c(F)cc1N(C)[C@H]1CCN(Cc2ccnn2CC(F)(F)F)C1 [Example 108, (S)-2-fluoro-5-methyl-4-(methyl(1-((1-(2,2,2-trifluoroethyl)-1H-pyrazol-5-yl)methyl)pyrrolidin-3-yl)amino)-N-(thiazol-4-yl)benzenesulfonamide]
IC50 (NaV1.1): 12.5 µM | IC50 (NaV1.6): 5.49 µM | IC50 (NaV1.5): > 30 µM

Cc1cc(S(=O)(=O)Nc2cscn2)c(F)cc1N(C)[C@H]1CCN([C@H]2C[C@@H](c3ccccc3)C2)C1 [Example 109, 2-fluoro-5-methyl-4-(methyl((S)-1-((1s,3R)-3-phenylcyclobutyl)-pyrrolidin-3-yl)amino)-N-(thiazol-4-yl)benzenesulfonamide formate]
IC50 (NaV1.1): 1.99 µM | IC50 (NaV1.6): 1.11 µM | IC50 (NaV1.5): 2.8 µM

Cc1nc(CN2CC[C@H](N(C)c3cc(F)c(S(=O)(=O)Nc4cscn4)cc3C)C2)cs1 [Example 110, (S)-2-fluoro-5-methyl-4-(methyl(1-((2-methylthiazol-4-yl)methyl)pyrrolidin-3-yl)amino)-N-(thiazol-4-yl)benzenesulfonamide formate]
IC50 (NaV1.1): > 30 µM | IC50 (NaV1.6): 0.262 µM | IC50 (NaV1.5): > 30 µM

Cc1cc(S(=O)(=O)Nc2cscn2)c(F)cc1N(C)[C@H]1CCN(Cc2ccn(C)n2)C1 [Example 111, (S)-2-fluoro-5-methyl-4-(methyl(1-((1-methyl-1H-pyrazol-3-yl)methyl)pyrrolidin-3-yl)amino)-N-(thiazol-4-yl)benzenesulfonamide formate]
IC50 (NaV1.1): > 30 µM | IC50 (NaV1.6): 0.763 µM | IC50 (NaV1.5): > 30 µM

Cc1cc(S(=O)(=O)Nc2cscn2)c(F)cc1N(C)[C@H]1CCN(Cc2ccccc2C(F)F)C1 [Example 112, (S)-4-((1-(2-(difluoromethyl)benzyl)-pyrrolidin-3-yl)(methyl)amino)-2-fluoro-5-methyl-N-(thiazol-4-yl)benzenesulfonamide]
IC50 (NaV1.1): 4.6 µM | IC50 (NaV1.6): 0.773 µM | IC50 (NaV1.5): 8.19 µM

Cc1cc(S(=O)(=O)Nc2cscn2)c(F)cc1N(C)[C@H]1CCN(Cc2cccc(O)c2)C1 [Example 114, (S)-2-fluoro-4-((1-(3-hydroxybenzyl)-pyrrolidin-3-yl)(methyl)amino)-5-methyl-N-(thiazol-4-yl)benzenesulfonamide]
IC50 (NaV1.1): 25.9 µM | IC50 (NaV1.6): 2.25 µM | IC50 (NaV1.5): > 30 µM

Cc1cc(S(=O)(=O)Nc2cscn2)c(F)cc1N(C)[C@H]1CCN(CCc2ccccc2)C1 [Example 115, (S)-2-fluoro-5-methyl-4-(methyl(1-phenethylpyrrolidin-3-yl)amino)-N-(thiazol-4-yl)benzenesulfonamide]
IC50 (NaV1.1): 6.75 µM | IC50 (NaV1.6): 1.6 µM | IC50 (NaV1.5): 19.3 µM

Cc1cc(S(=O)(=O)Nc2cscn2)c(F)cc1N(C)[C@H]1CCN(Cc2ncccc2OC(C)C)C1 [Example 116, (S)-2-fluoro-4-((1-((3-isopropoxypyridin-2-yl)methyl)pyrrolidin-3-yl)(methyl)amino)-5-methyl-N-(thiazol-4-yl)benzenesulfonamide formate]
IC50 (NaV1.1): 29.3 µM | IC50 (NaV1.6): 0.529 µM | IC50 (NaV1.5): > 30 µM

Cc1cc(S(=O)(=O)Nc2cscn2)c(F)cc1N(C)[C@H]1CCN([C@H]2C[C@H](c3ccccc3)C2)C1 [Example 117, 2-fluoro-5-methyl-4-(methyl((S)-1-((1r,3S)-3-phenylcyclobutyl)-pyrrolidin-3-yl)amino)-N-(thiazol-4-yl)benzenesulfonamide formate]
IC50 (NaV1.1): 2.26 µM | IC50 (NaV1.6): 1.45 µM | IC50 (NaV1.5): 3.09 µM

Cc1cc(S(=O)(=O)Nc2cscn2)c(F)cc1N(C)[C@H]1CCN(Cc2ccn(CC(F)(F)F)n2)C1 [Example 118, (S)-2-fluoro-5-methyl-4-(methyl(1-((1-(2,2,2-trifluoroethyl)-1H-pyrazol-3-yl)methyl)pyrrolidin-3-yl)amino)-N-(thiazol-4-yl)benzenesulfonamide]
IC50 (NaV1.1): 12.9 µM | IC50 (NaV1.6): 0.058 µM | IC50 (NaV1.5): > 30 µM

COc1ccccc1CN1CC[C@H](N(C)c2cc(F)c(S(=O)(=O)Nc3cscn3)cc2C)C1 [Example 119, (S)-2-fluoro-4-((1-(2-methoxybenzyl)-pyrrolidin-3-yl)(methyl)amino)-5-methyl-N-(thiazol-4-yl)benzenesulfonamide formate]
IC50 (NaV1.1): 28.8 µM | IC50 (NaV1.6): 0.368 µM | IC50 (NaV1.5): 20.2 µM

COc1cccnc1CN1CC[C@H](N(C)c2cc(F)c(S(=O)(=O)Nc3cscn3)cc2C)C1 [Example 120, (S)-2-fluoro-4-((1-((3-methoxypyridin-2-yl)methyl)pyrrolidin-3-yl)(methyl)amino)-5-methyl-N-(thiazol-4-yl)benzenesulfonamide formate]
IC50 (NaV1.1): > 30 µM | IC50 (NaV1.6): 0.39 µM | IC50 (NaV1.5): 22.9 µM

Cc1cc(CN2CC[C@H](N(C)c3cc(F)c(S(=O)(=O)Nc4cscn4)cc3C)C2)ns1 [Example 121, (S)-2-fluoro-5-methyl-4-(methyl(1-((5-methylisothiazol-3-yl)methyl)pyrrolidin-3-yl)amino)-N-(thiazol-4-yl)benzenesulfonamide formate]
IC50 (NaV1.1): > 30 µM | IC50 (NaV1.6): 1.47 µM | IC50 (NaV1.5): > 30 µM

Cc1cc(S(=O)(=O)Nc2cscn2)c(F)cc1N(C)[C@H]1CCN(Cc2cc3ccccn3n2)C1 [Example 122, (S)-2-fluoro-5-methyl-4-(methyl(1-(pyrazolo[1,5-a]pyridin-2-ylmethyl)pyrrolidin-3-yl)amino)-N-(thiazol-4-yl)benzenesulfonamide]
IC50 (NaV1.1): 26.9 µM | IC50 (NaV1.6): 1.72 µM | IC50 (NaV1.5): 24.2 µM
